Data on eleven molecules can be found in paper PMC8987054, “Structural basis for PoxtA-mediated resistance to phenicol and oxazolidinone antibiotics” (Nature Communications, 2022).

Converted amounts (≈) assume the structure as drawn. Where two headings read alike, the source gives them in different places.

Test [1] has as its system T1, E. faecium 9-F-6.
T1 construct: 9-F-6 (ST872)
Description: microbe, parasite or virus in culture. The arrangement: Broth microdilution MIC, EUENCF Sensititre plate, multidrug-resistant clinical isolate. The following applies: Enterococcus faecium, 9F6, read-out: MIC BMD. From the text:
(§1) ST872 is a single locus variant of ST80 which is a pandemic hospital-adapted genetic lineage. […] The results (MICs) were interpreted according to EUCAST clinical breakpoints v.

Test [2] deals with T1, E. faecium 9-F-6. In words: microbe, parasite or virus in culture. Also noted: Gradient test MIC (MIC Test Strip, Liofilchem), multidrug-resistant clinical isolate. The settings on record: Enterococcus faecium, 9F6, read-out: MIC GRAD.
Description: as §1

Take `CC1(C)S[C@@H]2[C@H](NC(=O)[C@H](N)c3ccc(O)cc3)C(=O)N2[C@H]1C(=O)O` [Amoxicillin]: the MIC in the test with E. faecium 9-F-6 [1] is more than 32 µg/mL.
With `CC1(C)S[C@@H]2[C@H](NC(=O)[C@H](N)c3ccccc3)C(=O)N2[C@H]1C(=O)O` [Ampicillin], the MIC in the test with E. faecium 9-F-6 [1] is more than 32 µg/mL; with E. faecium 9-F-6 [2] it was more than 256 µg/mL.
As for `O=C(N[C@H](CO)[C@H](O)c1ccc([N+](=O)[O-])cc1)C(Cl)Cl` [Chloramphenicol], the MIC in the test with E. faecium 9-F-6 [2] was 16 µg/mL (≈ 49.5 µM).
As for `CCC[C@@H]1C[C@@H](C(=O)N[C@@H]([C@H]2O[C@H](SC)[C@H](O)[C@@H](O)[C@H]2O)[C@H](C)Cl)N(C)C1` [Clindamycin], in the test on E. faecium 9-F-6 [2], the MIC was more than 256 µg/mL.
On to `CNC(C)[C@@H]1CC[C@@H](N)[C@@H](O[C@H]2[C@H](O)[C@@H](O[C@H]3OC[C@](C)(O)[C@H](NC)[C@H]3O)[C@H](N)C[C@@H]2N)O1` (some centres unmarked) [Gentamicin], for which the MIC is more than 256 µg/mL in the test on E. faecium 9-F-6 [1] and more than 1020 µg/mL in the test with E. faecium 9-F-6 [2].
Turning to `C[C@@H](O)[C@H]1C(=O)N2C(C(=O)O)=C(SCCNC=N)C[C@H]12` [Imipenem], the MIC in the test on E. faecium 9-F-6 [1] is more than 16 µg/mL.
Take `C[C@H]1COc2c(N3CCN(C)CC3)c(F)cc3c(=O)c(C(=O)O)cn1c23` [Levofloxacin]: the MIC with E. faecium 9-F-6 [1] was more than 16 µg/mL.
Turning to `CC(=O)NC[C@H]1CN(c2ccc(N3CCOCC3)c(F)c2)C(=O)O1` [Linezolid], in the test on E. faecium 9-F-6 [1], the MIC stood at 8 µg/mL (≈ 23.7 µM).
`CN[C@@H]1[C@H](O[C@H]2[C@H](O[C@H]3[C@H](O)[C@@H](O)[C@H](N=C(N)N)[C@@H](O)[C@@H]3N=C(N)N)O[C@@H](C)[C@]2(O)C=O)O[C@@H](CO)[C@H](O)[C@H]1O` [Streptomycin]: in the test with E. faecium 9-F-6 [1], the MIC was more than 1020 µg/mL.
On the same count and under the same terms, under `CN(C)c1cc(NC(=O)CNC(C)(C)C)c(O)c2c1C[C@H]1C[C@H]3[C@H](N(C)C)C(O)=C(C(N)=O)C(=O)[C@@]3(O)C(O)=C1C2=O` [Tigecycline] stands 0.12 µg/mL (≈ 0.205 µM).
`CN[C@H](CC(C)C)C(=O)N[C@H]1C(=O)N[C@@H](CC(N)=O)C(=O)N[C@H]2C(=O)N[C@H]3C(=O)N[C@H](C(=O)N[C@H](C(=O)O)c4cc(O)cc(O)c4-c4cc3ccc4O)[C@H](O)c3ccc(c(Cl)c3)Oc3cc2cc(c3O[C@@H]2O[C@H](CO)[C@@H](O)[C@H](O)[C@H]2O[C@H]2C[C@](C)(N)[C@H](O)[C@H](C)O2)Oc2ccc(cc2Cl)[C@H]1O` [Vancomycin]: the results for the MIC in the test with E. faecium 9-F-6 [1] and in the test with E. faecium 9-F-6 [2] were more than 16 µg/mL and more than 256 µg/mL, respectively.
